Values quoted from earlier work, collected in patent US6511676B1 (priority 1999, dated 2003).

Key:
[1] = tested on: epithelial ovarian carcinoma; details: oral, 61 patients with cis- or carboplatin resistance
testicular cancers = details: in vivo

| SMILES | objective response rate [1] [%] | testicular cancers cured (testicular cancers) |
| --- | --- | --- |
| CN(C)c1nc(N(C)C)nc(N(C)C)n1 [hexamethylmelamine] | 14 | – |
| N.N.[Cl][Pt][Cl] [cisplatin, Cis-diamminedichloroplatinum(II)] | – | More than 90% |
